Reference: PMC7915185 (Molecules, 2021)

Assays:
[1] = molecular target: T1, H1N1 (A/WSN/1933) hemagglutinin (HA) protein (Influenza A virus, UniProt P03454); assay: biochemical; type: binding, influenza virus H1N1 (A/WSN/1933)
T1 construct: purchased Sino Biological Inc. (Beijing, China)

[2] = molecular target: H5N1 (A/Hong Kong/483/97) hemagglutinin (HA) protein (Influenza A virus, UniProt Q77XR4); type: binding, influenza virus H5N1 (A/Hong Kong/483/97); details: pH 7.4
HA = details: in our previous work; cited from earlier work

Row | Compound | Kd [1] | thermodynamic dissociation constant KD [2] | thermodynamic dissociation constant KD ([1]; pH 7.4) | affinity to HA (SPR) (HA)
1 | CC(=O)N[C@@H]1[C@@H](O)[C@H](O[C@@H]2O[C@H](CO)[C@@H](O[C@@H]3O[C@H](CO[C@H]4O[C@H](CO)[C@@H](O)[C@H](O)[C@@H]4O[C@@H]4O[C@H](CO)[C@@H](O[C@@H]5O[C@H](CO[C@]6(C(=O)O)C[C@H](O)[C@@H](NC(C)=O)[C@H]([C@H](O)[C@H](O)CO)O6)[C@H](O)[C@H](O)[C@H]5O)[C@H](O)[C@H]4NC(C)=O)[C@@H](O)[C@H](O[C@H]4O[C@H](CO)[C@@H](O)[C@H](O)[C@@H]4O[C@@H]4O[C@H](CO)[C@@H](O[C@@H]5O[C@H](CO[C@]6(C(=O)O)C[C@H](O)[C@@H](NC(C)=O)[C@H]([C@H](O)[C@H](O)CO)O6)[C@H](O)[C@H](O)[C@H]5O)[C@H](O)[C@H]4NC(C)=O)[C@@H]3O)[C@H](O)[C@H]2NC(C)=O)[C@@H](CO)O[C@H]1NC(=O)C[C@H](NC(=O)CCc1cn(CCOCCOCCOCCOCCOCCOC(=O)[C@]23CC[C@@H](C)[C@H](C)[C@H]2C2=CC[C@@H]4[C@@]5(C)CC[C@H](O)C(C)(C)[C@@H]5CC[C@@]4(C)[C@]2(C)CC3)nn1)C(=O)O [SCT-Asn-UA] | 289 µM | – | – | –
2 | CC1(C)CC[C@]2(C(=O)O)CC[C@]3(C)C(=CC[C@@H]4[C@@]5(C)CC[C@H](O)C(C)(C)[C@@H]5CC[C@]43C)[C@@H]2C1 [OA, oleanolic acid] | 31.1 µM | – | – | –
3 | CC(=O)N[C@@H]1[C@@H](O)[C@H](O[C@@H]2O[C@H](CO)[C@@H](O[C@@H]3O[C@H](CO[C@H]4O[C@H](CO)[C@@H](O)[C@H](O)[C@@H]4O[C@@H]4O[C@H](CO)[C@@H](O[C@@H]5O[C@H](CO[C@]6(C(=O)O)C[C@H](O)[C@@H](NC(C)=O)[C@H]([C@H](O)[C@H](O)CO)O6)[C@H](O)[C@H](O)[C@H]5O)[C@H](O)[C@H]4NC(C)=O)[C@@H](O)[C@H](O[C@H]4O[C@H](CO)[C@@H](O)[C@H](O)[C@@H]4O[C@@H]4O[C@H](CO)[C@@H](O[C@@H]5O[C@H](CO[C@]6(C(=O)O)C[C@H](O)[C@@H](NC(C)=O)[C@H]([C@H](O)[C@H](O)CO)O6)[C@H](O)[C@H](O)[C@H]5O)[C@H](O)[C@H]4NC(C)=O)[C@@H]3O)[C@H](O)[C@H]2NC(C)=O)[C@@H](CO)O[C@H]1NC(=O)C[C@H](NC(=O)CCc1cn(CCOCCOCCOCCOCCOCCOC(=O)[C@@]2(C)CC[C@]3(C)CC[C@]4(C)C(=CC(=O)[C@@H]5[C@@]6(C)CC[C@H](O)C(C)(C)[C@@H]6CC[C@]54C)[C@@H]3C2)nn1)C(=O)O [SCT-Asn-GA] | 16.4 µM | – | – | –
4 | C[C@H]1[C@H](C)CC[C@]2(C(=O)O)CC[C@]3(C)C(=CC[C@@H]4[C@@]5(C)CC[C@H](O)C(C)(C)[C@@H]5CC[C@]43C)[C@H]12 [UA, ursolic acid] | 137 µM | no significant affinity | – | –
5 | C=C(C)[C@@H]1CC[C@]2(C(=O)O)CC[C@]3(C)[C@H](CC[C@@H]4[C@@]5(C)CC[C@H](O)C(C)(C)[C@@H]5CC[C@]43C)[C@@H]12 [BA, betulinic acid] | – | no significant affinity | no affinity | –
6 | C=C(C)[C@@H]1CC[C@]2(C(=O)OCCOCCOCCOCCOCCOCCn3cc(CCC(=O)N[C@@H](CC(=O)N[C@@H]4O[C@H](CO)[C@@H](O[C@@H]5O[C@H](CO)[C@@H](O[C@@H]6O[C@H](CO[C@H]7O[C@H](CO)[C@@H](O)[C@H](O)[C@@H]7O[C@@H]7O[C@H](CO)[C@@H](O[C@@H]8O[C@H](CO[C@]9(C(=O)O)C[C@H](O)[C@@H](NC(C)=O)[C@H]([C@H](O)[C@H](O)CO)O9)[C@H](O)[C@H](O)[C@H]8O)[C@H](O)[C@H]7NC(C)=O)[C@@H](O)[C@H](O[C@H]7O[C@H](CO)[C@@H](O)[C@H](O)[C@@H]7O[C@@H]7O[C@H](CO)[C@@H](O[C@@H]8O[C@H](CO[C@]9(C(=O)O)C[C@H](O)[C@@H](NC(C)=O)[C@H]([C@H](O)[C@H](O)CO)O9)[C@H](O)[C@H](O)[C@H]8O)[C@H](O)[C@H]7NC(C)=O)[C@@H]6O)[C@H](O)[C@H]5NC(C)=O)[C@H](O)[C@H]4NC(C)=O)C(=O)O)nn3)CC[C@]3(C)[C@H](CC[C@@H]4[C@@]5(C)CC[C@H](O)C(C)(C)[C@@H]5CC[C@]43C)[C@@H]12 [SCT-Asn-BA] | 6.89 µM | – | – | –
7 | CC1(C)[C@@H](O)CC[C@]2(C)[C@H]3C(=O)C=C4[C@@H]5C[C@@](C)(C(=O)O)CC[C@]5(C)CC[C@@]4(C)[C@]3(C)CC[C@@H]12 [GA, glycyrrhetinic acid] | 584 µM | no significant affinity | – | –
8 | Sialylglycopeptide [SGP] | – | no affinity | – | no affinity
9 | CC(=O)N[C@@H]1[C@@H](O)[C@H](O[C@@H]2O[C@H](CO)[C@@H](O[C@@H]3O[C@H](CO[C@H]4O[C@H](CO)[C@@H](O)[C@H](O)[C@@H]4O[C@@H]4O[C@H](CO)[C@@H](O[C@@H]5O[C@H](CO[C@]6(C(=O)O)C[C@H](O)[C@@H](NC(C)=O)[C@H]([C@H](O)[C@H](O)CO)O6)[C@H](O)[C@H](O)[C@H]5O)[C@H](O)[C@H]4NC(C)=O)[C@@H](O)[C@H](O[C@H]4O[C@H](CO)[C@@H](O)[C@H](O)[C@@H]4O[C@@H]4O[C@H](CO)[C@@H](O[C@@H]5O[C@H](CO[C@]6(C(=O)O)C[C@H](O)[C@@H](NC(C)=O)[C@H]([C@H](O)[C@H](O)CO)O6)[C@H](O)[C@H](O)[C@H]5O)[C@H](O)[C@H]4NC(C)=O)[C@@H]3O)[C@H](O)[C@H]2NC(C)=O)[C@@H](CO)O[C@H]1NC(=O)C[C@H](NC(=O)CCc1cn(CCOCCOCCOCCOCCOCCOC(=O)[C@]23CCC(C)(C)C[C@H]2C2=CC[C@@H]4[C@@]5(C)CC[C@H](O)C(C)(C)[C@@H]5CC[C@@]4(C)[C@]2(C)CC3)nn1)C(=O)O [SCT-Asn-OA] | 11.2 µM | – | – | –
